According to PubChem BioAssay (NCI):
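96-well plates; 48 h exposure; 5 concentrations. Endpoints by linear interpolation between flanking doses. Not reached: highest tested concentration assigned. TGI is the concentration that stops growth completely.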

Columns and labels:
Test in all cases: DTP human tumour cell line panel, 48 h
COLO 205 colon = tested on: COLO 205 colon
CCRF-CEM leukemia = tested on: CCRF-CEM leukemia
PC-3 prostate = tested on: PC-3 prostate
SNB-75 CNS = tested on: SNB-75 CNS
RXF 393 renal = tested on: RXF 393 renal
NCI-H23 lung = tested on: NCI-H23 lung
SN12C renal = tested on: SN12C renal
A498 renal = tested on: A498 renal
KM12 colon = tested on: KM12 colon
SK-OV-3 ovarian = tested on: SK-OV-3 ovarian
U251 CNS = tested on: U251 CNS
OVCAR-3 ovarian = tested on: OVCAR-3 ovarian
UACC-62 melanoma = tested on: UACC-62 melanoma
MDA-N = tested on: MDA-N
MOLT-4 leukemia = tested on: MOLT-4 leukemia
HCC-2998 colon = tested on: HCC-2998 colon
A549 NSCLC = tested on: A549 NSCLC

| SMILES | TGI (COLO 205 colon) | TGI (CCRF-CEM leukemia) | TGI (PC-3 prostate) | TGI (SNB-75 CNS) | TGI (RXF 393 renal) | TGI (NCI-H23 lung) | TGI (SN12C renal) | TGI (A498 renal) | TGI (KM12 colon) | TGI (SK-OV-3 ovarian) | TGI (U251 CNS) | TGI (OVCAR-3 ovarian) | TGI (UACC-62 melanoma) | TGI (MDA-N) | TGI (MOLT-4 leukemia) | TGI (HCC-2998 colon) | TGI (A549 NSCLC) |
| --- | --- | --- | --- | --- | --- | --- | --- | --- | --- | --- | --- | --- | --- | --- | --- | --- | --- |
| C=CCNC1=C2C[C@@H](C)C[C@H](OC)[C@H](O)[C@@H](C)/C=C(\C)[C@H](OC(N)=O)[C@@H](OC)/C=C\C=C(/C)C(=O)NC(=CC1=O)C2=O | 1.67 µM | 10.6 µM | 40.7 µM | 2.72 µM | 10.1 µM | 8.3 µM | 19.4 µM | 30 µM | 0.237 µM | 58.8 µM | 49.5 µM | 9.64 µM | 4.8 µM | 15 µM | 13 µM | 2.82 µM | 17.8 µM |
| CN1C(=O)C(C(=O)Nc2ccccn2)C2C[C@@]1(C)Oc1ccccc12 (some centres not stated) | > 100 µM | > 100 µM | > 100 µM | > 100 µM | > 100 µM | > 100 µM | – | > 100 µM | > 100 µM | > 100 µM | > 100 µM | > 100 µM | > 100 µM | > 100 µM | > 100 µM | > 100 µM | > 100 µM |
| C=CCOCn1cc(F)c(=O)[nH]c1=O | > 100 µM | > 100 µM | > 100 µM | > 100 µM | – | > 100 µM | > 100 µM | > 100 µM | > 100 µM | > 100 µM | – | – | > 100 µM | > 100 µM | > 100 µM | > 100 µM | > 100 µM |
| COc1ccccc1/C=C1\S/C(=N/Nc2nc(C)c(C(C)=O)s2)NC1=O | 46.2 µM | > 100 µM | > 100 µM | 61 µM | > 100 µM | > 100 µM | > 100 µM | 45.5 µM | > 100 µM | > 100 µM | > 100 µM | 56.1 µM | > 100 µM | 88.1 µM | > 100 µM | > 100 µM | > 100 µM |
| Cc1cn(Cc2cccc(C3=NCCCN3)c2)c(=O)n(Cc2cccc(C3=NCCCN3)c2)c1=O | > 100 µM | > 100 µM | > 100 µM | > 100 µM | – | > 100 µM | > 100 µM | > 100 µM | > 100 µM | > 100 µM | > 100 µM | > 100 µM | > 100 µM | > 100 µM | > 100 µM | > 100 µM | > 100 µM |
| O=C(COc1ccccc1)N(C(=O)N1CCN(c2ccccc2)CC1)S(=O)(=O)c1ccccc1 | > 100 µM | 61.2 µM | > 100 µM | 96 µM | – | > 100 µM | > 100 µM | > 100 µM | > 100 µM | > 100 µM | > 100 µM | > 100 µM | > 100 µM | > 100 µM | 61.9 µM | > 100 µM | > 100 µM |
| CN(/N=C/c1ccccn1)C1=NCCCN1 | > 100 µM | > 100 µM | > 100 µM | > 100 µM | > 100 µM | > 100 µM | – | > 100 µM | > 100 µM | > 100 µM | > 100 µM | > 100 µM | > 100 µM | > 100 µM | > 100 µM | > 100 µM | > 100 µM |
| O=[N+]([O-])c1cc(-[n+]2cc([O-])on2)ccc1Cl | > 100 µM | 62.4 µM | > 100 µM | 66.3 µM | 27.9 µM | 26.6 µM | 29.8 µM | – | 54.9 µM | > 100 µM | 30.7 µM | > 100 µM | 89.8 µM | 39.9 µM | – | 34.9 µM | > 100 µM |
| CCOC(=O)C1C(c2ccc(OC)cc2)c2c([nH][nH]c2=O)CC1(C)O (configuration not stated) | > 100 µM | > 100 µM | > 100 µM | > 100 µM | – | > 100 µM | > 100 µM | > 100 µM | > 100 µM | – | > 100 µM | > 100 µM | > 100 µM | > 100 µM | > 100 µM | > 100 µM | > 100 µM |
| CCOC(=O)NN(C(=O)OCC)C(=C(C1=CCCCC1)N1CCOCC1)N(NC(=O)OCC)C(=O)OCC | > 100 µM | – | > 100 µM | > 100 µM | > 100 µM | > 100 µM | > 100 µM | > 100 µM | > 100 µM | > 100 µM | > 100 µM | > 100 µM | > 100 µM | > 100 µM | > 100 µM | > 100 µM | > 100 µM |
| Nc1cc2ncnn2c(SCC(=O)N/N=C/C(Br)=C\c2ccccc2)n1 | 41.1 µM | > 100 µM | 27.7 µM | > 100 µM | 42.2 µM | 33.1 µM | 48.4 µM | – | 52.7 µM | – | 20.7 µM | 40.5 µM | – | 31.6 µM | 71.7 µM | 40.6 µM | 60.1 µM |
